Laboratory results: ChEMBL document CHEMBL1201862, “PubChem BioAssay data set” (2004)
Structures can show the parent of a compound that is named as a salt. The source made the active and inactive calls.

Assays:
[1] = molecular target: T1, Bcl-2-related protein A1 (Mus musculus, UniProt Q07440); type: functional;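 further: confirmatory dose–response counterscreen on Bfl-1, used to check hits from a UBC13 polyubiquitin inhibitor campaign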
T1 sequence (Q07440 whole entry): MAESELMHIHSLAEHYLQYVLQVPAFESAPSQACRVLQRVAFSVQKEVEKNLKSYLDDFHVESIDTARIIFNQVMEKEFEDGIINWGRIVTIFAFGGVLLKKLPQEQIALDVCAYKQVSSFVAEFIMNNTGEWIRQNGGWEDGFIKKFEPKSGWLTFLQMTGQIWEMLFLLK

[2] = molecular target: T2, Ubiquitin-conjugating enzyme E2 N (Homo sapiens, UniProt P61088); type: functional
T2 sequence (P61088 whole entry): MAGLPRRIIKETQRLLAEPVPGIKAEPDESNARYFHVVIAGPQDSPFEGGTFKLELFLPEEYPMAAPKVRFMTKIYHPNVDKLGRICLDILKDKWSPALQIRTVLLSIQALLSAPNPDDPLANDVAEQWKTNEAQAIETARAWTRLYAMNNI

[3] = molecular target: T2, Ubiquitin-conjugating enzyme E2 N; type: functional; remark: listed apart in the source
[4] = molecular target: Sphingosine 1-phosphate receptor 5 (Homo sapiens, UniProt Q9H228); assay: Late stage counterscreen assay for S1P4 antagonists: Fluorescence dose response cell-based screening assay for antagonists of the Sphingosine 1-Phosphate Receptor 5 (S1P5). [Related pubchem assays (depositor defined):AID1510, AID1524, AID1692, AID1853, AID2332, AID489009, AID489017]; type: functional
[5] = molecular target: Sphingosine 1-phosphate receptor 3 (Homo sapiens, UniProt Q99500); assay: Late stage counterscreen assay for S1P4 antagonists: Fluorescence dose response cell-based screening assay for antagonists of the Sphingosine 1-Phosphate Receptor 3 (S1P3). [Related pubchem assays (depositor defined):AID1510, AID1524, AID1692, AID1853, AID2332, AID489009, AID489017]; type: functional
[6] = molecular target: Sphingosine 1-phosphate receptor 1 (Homo sapiens, UniProt P21453); assay: Late stage counterscreen assay for S1P4 antagonists: Fluorescence dose response cell-based screening assay for antagonists of the Sphingosine 1-Phosphate Receptor 1 (S1P1). [Related pubchem assays (depositor defined):AID1510, AID1524, AID1692, AID1853, AID2332, AID489009, AID489017]; type: functional
[7] = molecular target: Sphingosine 1-phosphate receptor 2 (Homo sapiens, UniProt O95136); assay: Late stage counterscreen assay for S1P4 antagonists: Fluorescence dose response cell-based screening assay for antagonists of the Sphingosine 1-Phosphate Receptor 2 (S1P2). [Related pubchem assays (depositor defined):AID1510, AID1524, AID1692, AID1853, AID2332, AID489009, AID489017]; type: functional
[8] = Luminescence Cell-Based Dose Retest to Confirm Inhibitors of Cancer Stem Cells. [Related pubchem assays (depositor defined):AID2717, AID2721]; type: functional; conditions: Homo sapiens
[9] = molecular target: DNA damage-inducible transcript 3 protein (Mus musculus, UniProt P35639); type: functional, Cricetulus griseus
[10] = test system: INS1; assay: INS-1E survival protection against cytokine death – cell-based, luminescence, retest, dose response (AID 449756); type: functional; conditions: Rattus norvegicus;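 further: cell death triggered by IL-1 beta plus TNF-alpha plus IFN-gamma mixture; protective hits raise ATP signal compared with cytokine alone wells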
[11] = molecular target: SUMO-activating enzyme (Homo sapiens, UniProt Q9UBT2); assay: blockers of UBC9-mediated SUMO conjugation – biochemical, AlphaScreen, SUMOylation inhibitor project, confirmation (AID 2018); type: functional
[12] = test system: Streptococcus sp. 'group A'; assay: Streptococcus pyogenes SK(-)GAS viability under kanamycin – luminescence, BacTiterGlo, confirmation, counter-screen for streptokinase expression inhibitor project, dose response (AID 1900); type: functional, organism-based
[13] = molecular target: T3, Streptokinase A (Streptococcus pyogenes serotype M1, UniProt P10520); assay: viability-normalized secreted streptokinase activity reduction – plasminogen activation absorbance, OD405, dose response (AID 1914); type: functional, Streptococcus pyogenes M1 GAS;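 further: secreted streptokinase activity via plasminogen activation per viability signal from cell pellet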
T3 sequence (P10520 whole entry): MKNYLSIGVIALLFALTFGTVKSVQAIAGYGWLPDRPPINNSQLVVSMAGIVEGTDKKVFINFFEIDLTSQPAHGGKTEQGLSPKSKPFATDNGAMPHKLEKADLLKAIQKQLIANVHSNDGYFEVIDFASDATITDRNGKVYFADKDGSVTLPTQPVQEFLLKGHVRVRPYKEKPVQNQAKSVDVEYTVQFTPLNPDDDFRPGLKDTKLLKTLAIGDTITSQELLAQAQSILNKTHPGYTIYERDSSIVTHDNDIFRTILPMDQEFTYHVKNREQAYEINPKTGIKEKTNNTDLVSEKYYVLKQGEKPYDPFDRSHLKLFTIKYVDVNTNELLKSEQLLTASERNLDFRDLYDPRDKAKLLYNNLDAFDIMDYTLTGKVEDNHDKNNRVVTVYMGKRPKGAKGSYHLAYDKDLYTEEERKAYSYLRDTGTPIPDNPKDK

[14] = test system: Streptococcus; assay: GAS UMAA2166 growth inhibition – luminescence, BacTiterGlo, counter-screen for streptokinase expression inhibitor project, dose response (AID 1915); type: functional, organism-based;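 further: potency for reduction of bacterial viability or growth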
[15] = molecular target: Heat shock protein HSP 90-alpha (Homo sapiens, UniProt P07900); type: functional, organism-based
[16] = molecular target: Genome polyprotein (dengue virus type 2, UniProt P29990); assay: flavivirus cap methylation enzyme inhibition – biochemical, confirmation dose response, primary screen (AID 588689); type: functional
[17] = test system: HEK293; assay: cells; conditions: Homo sapiens
[18] = test system: HEK293; assay: cells; conditions: Homo sapiens; remark: listed apart in the source
[19] = molecular target: Lysine-specific demethylase 4C (Homo sapiens, UniProt Q9H3R0); assay: inhibition of JMJD2C H3K9me3 demethylation – biochemical, DELFIA europium, cherry-picked samples, dose response (AID 488835); type: functional
[20] = molecular target: Cytochrome P450 2D6 (Homo sapiens, UniProt P10635);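 further: CYP2D6 member of a cytochrome P450 panel assay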
[21] = molecular target: Cytochrome P450 2C9 (Homo sapiens, UniProt P11712)
[22] = molecular target: T4, Dual specificity protein phosphatase 3 (Homo sapiens, UniProt P51452); assay: VHR1 phosphatase inhibitors, primary screen, biochemical, absorbance, uHTS (AID 1654)
[23] = molecular target: T4, Dual specificity protein phosphatase 3; assay: VHR1 phosphatase inhibitors, biochemical (AID 1878)
[24] = molecular target: T5, Dual specificity protein phosphatase 6 (Rattus norvegicus, UniProt Q64346); assay: inhibition of rat DUSP6 enzyme activity – biochemical, in vitro, primary screen (AID 425)
T5 sequence (Q64346 whole entry): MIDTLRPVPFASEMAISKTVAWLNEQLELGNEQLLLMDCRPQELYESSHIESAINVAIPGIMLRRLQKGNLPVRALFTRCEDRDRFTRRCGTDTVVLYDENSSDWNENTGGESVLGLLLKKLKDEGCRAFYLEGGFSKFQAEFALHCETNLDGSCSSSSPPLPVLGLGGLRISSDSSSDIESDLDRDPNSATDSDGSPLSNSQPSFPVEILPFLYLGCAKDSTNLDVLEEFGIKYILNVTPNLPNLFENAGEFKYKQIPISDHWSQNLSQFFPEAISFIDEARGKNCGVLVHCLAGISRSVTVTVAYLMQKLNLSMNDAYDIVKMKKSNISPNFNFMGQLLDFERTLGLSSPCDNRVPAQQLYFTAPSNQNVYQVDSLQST

[25] = molecular target: T6, Polyadenylate-binding protein 1 (Homo sapiens, UniProt P11940); assay: MLLE binding blockers, Cy5 peptide tracer – biochemical, fluorescence polarization, Cy5-PAM2 peptide, secondary, miRNA deadenylation inhibitor project, dose response (AID 602260); type: functional; conditions: read-out: IC50_Mean
[26] = molecular target: T6, Polyadenylate-binding protein 1; assay: MLLE domain peptide-binding blockers, IC50 – biochemical, fluorescence polarization, FITC-PAM2 peptide, dose response (AID 602259); type: functional; conditions: read-out: IC50_Mean

T4 sequence (P51452 whole entry): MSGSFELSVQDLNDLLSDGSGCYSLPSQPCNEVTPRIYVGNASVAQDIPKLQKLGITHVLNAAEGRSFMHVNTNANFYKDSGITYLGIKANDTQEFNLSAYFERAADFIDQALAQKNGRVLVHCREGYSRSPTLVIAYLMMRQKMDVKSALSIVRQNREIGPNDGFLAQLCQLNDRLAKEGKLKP
T6 sequence (P11940 whole entry, the tested form may be a part): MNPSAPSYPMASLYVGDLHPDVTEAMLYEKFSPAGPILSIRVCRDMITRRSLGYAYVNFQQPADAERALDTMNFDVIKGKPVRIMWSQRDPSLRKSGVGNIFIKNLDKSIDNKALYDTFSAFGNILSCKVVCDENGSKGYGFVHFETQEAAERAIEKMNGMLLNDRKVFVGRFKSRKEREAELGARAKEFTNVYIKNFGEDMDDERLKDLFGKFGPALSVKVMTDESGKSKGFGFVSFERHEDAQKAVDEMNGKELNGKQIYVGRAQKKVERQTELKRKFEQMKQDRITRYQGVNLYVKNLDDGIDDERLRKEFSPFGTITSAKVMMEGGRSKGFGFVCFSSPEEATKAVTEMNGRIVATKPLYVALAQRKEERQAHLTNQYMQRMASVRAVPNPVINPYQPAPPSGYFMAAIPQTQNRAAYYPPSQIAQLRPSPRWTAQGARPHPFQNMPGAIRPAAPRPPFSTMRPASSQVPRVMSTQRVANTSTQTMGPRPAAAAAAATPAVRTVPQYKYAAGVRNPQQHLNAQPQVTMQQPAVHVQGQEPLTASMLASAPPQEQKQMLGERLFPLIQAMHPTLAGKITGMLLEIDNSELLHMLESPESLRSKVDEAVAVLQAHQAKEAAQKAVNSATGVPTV
Genome polyprotein, sequence (P29990 2492-3391 limits assumed): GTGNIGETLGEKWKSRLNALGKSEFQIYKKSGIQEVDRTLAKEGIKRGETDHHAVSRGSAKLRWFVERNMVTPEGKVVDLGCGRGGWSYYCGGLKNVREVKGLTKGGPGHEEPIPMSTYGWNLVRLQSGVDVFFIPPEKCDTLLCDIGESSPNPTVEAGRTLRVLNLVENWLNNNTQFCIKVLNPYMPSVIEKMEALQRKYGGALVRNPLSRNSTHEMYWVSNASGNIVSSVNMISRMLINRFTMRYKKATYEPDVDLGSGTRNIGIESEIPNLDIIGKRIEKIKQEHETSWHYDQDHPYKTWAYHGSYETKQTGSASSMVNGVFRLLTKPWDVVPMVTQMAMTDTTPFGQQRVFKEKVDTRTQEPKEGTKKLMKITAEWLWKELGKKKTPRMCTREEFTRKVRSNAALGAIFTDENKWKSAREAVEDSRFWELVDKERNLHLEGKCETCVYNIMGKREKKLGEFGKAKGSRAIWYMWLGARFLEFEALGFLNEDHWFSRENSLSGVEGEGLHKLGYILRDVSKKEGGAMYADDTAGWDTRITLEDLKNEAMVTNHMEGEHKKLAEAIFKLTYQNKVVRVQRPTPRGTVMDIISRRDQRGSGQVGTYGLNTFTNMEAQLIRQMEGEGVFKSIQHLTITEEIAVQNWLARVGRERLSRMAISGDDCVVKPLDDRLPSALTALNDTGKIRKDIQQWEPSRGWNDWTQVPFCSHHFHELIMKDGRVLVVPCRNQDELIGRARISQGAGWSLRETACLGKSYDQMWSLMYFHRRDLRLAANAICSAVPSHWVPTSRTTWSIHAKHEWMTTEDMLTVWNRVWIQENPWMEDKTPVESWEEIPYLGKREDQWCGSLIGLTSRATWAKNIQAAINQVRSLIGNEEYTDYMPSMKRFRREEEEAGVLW
Cytochrome P450 2D6, sequence (P10635 whole entry): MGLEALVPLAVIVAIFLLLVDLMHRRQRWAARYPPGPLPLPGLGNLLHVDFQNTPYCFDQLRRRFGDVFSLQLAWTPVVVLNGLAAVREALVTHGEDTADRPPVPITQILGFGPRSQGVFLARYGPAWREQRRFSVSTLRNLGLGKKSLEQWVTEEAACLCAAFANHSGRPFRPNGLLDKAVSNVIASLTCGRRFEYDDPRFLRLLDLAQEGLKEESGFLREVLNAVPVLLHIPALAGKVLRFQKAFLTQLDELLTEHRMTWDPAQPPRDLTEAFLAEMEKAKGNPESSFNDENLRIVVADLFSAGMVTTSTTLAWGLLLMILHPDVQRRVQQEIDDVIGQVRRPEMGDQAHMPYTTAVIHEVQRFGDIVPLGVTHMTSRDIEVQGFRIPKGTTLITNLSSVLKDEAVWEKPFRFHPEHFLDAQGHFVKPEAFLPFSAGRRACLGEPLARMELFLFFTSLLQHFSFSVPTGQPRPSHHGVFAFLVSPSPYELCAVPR
Sphingosine 1-phosphate receptor 5, sequence (Q9H228 whole entry): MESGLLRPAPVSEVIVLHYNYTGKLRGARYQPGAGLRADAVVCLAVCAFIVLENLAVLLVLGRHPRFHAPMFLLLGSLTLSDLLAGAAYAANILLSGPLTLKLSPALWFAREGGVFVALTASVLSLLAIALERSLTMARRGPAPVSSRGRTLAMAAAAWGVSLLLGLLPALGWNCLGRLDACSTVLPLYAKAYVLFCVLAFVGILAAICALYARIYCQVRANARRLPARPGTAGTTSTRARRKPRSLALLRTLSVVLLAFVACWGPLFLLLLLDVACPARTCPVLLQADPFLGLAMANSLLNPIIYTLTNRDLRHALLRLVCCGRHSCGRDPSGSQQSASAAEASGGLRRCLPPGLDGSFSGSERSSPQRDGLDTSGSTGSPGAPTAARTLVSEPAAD
Sphingosine 1-phosphate receptor 2, sequence (O95136 whole entry): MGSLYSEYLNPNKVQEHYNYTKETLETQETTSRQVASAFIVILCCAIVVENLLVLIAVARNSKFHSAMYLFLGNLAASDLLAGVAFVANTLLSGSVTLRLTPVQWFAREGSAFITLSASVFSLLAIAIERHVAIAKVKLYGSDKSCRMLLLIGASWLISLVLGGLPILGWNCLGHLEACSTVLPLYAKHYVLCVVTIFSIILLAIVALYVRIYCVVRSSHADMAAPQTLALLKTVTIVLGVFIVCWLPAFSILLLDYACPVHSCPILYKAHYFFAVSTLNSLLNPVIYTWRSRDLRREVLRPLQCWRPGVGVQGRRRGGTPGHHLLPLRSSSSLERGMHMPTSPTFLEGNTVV
DNA damage-inducible transcript 3 protein, sequence (P35639 whole entry): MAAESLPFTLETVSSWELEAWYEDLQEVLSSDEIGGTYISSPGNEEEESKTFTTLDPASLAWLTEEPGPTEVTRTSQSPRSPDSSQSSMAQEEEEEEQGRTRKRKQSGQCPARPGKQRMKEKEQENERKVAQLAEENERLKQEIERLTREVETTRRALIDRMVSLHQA
Cytochrome P450 2C9, sequence (P11712 whole entry): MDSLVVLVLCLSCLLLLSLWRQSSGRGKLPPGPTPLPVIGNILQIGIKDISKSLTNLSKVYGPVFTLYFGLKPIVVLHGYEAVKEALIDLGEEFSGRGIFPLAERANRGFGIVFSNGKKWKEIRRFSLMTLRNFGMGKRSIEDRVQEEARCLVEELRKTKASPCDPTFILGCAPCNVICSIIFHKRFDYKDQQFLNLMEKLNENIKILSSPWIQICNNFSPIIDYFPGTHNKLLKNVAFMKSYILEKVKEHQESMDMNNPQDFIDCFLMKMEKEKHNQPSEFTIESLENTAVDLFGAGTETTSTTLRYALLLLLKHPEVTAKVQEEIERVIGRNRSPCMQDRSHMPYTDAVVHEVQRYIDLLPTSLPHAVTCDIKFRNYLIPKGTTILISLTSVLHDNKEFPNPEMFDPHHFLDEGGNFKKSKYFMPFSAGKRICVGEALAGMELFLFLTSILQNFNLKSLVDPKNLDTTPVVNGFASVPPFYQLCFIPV
Sphingosine 1-phosphate receptor 3, sequence (Q99500 whole entry): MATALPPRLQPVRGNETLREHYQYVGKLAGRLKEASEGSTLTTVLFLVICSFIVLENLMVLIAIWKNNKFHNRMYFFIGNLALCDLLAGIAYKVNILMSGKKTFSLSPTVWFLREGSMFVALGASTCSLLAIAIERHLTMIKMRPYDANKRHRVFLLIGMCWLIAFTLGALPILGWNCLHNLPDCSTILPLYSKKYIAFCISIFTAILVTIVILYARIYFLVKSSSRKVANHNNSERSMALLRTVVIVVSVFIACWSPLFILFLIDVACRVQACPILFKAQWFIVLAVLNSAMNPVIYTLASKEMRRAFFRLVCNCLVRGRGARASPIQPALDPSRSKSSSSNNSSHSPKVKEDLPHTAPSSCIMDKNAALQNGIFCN
Sphingosine 1-phosphate receptor 1, sequence (P21453 whole entry): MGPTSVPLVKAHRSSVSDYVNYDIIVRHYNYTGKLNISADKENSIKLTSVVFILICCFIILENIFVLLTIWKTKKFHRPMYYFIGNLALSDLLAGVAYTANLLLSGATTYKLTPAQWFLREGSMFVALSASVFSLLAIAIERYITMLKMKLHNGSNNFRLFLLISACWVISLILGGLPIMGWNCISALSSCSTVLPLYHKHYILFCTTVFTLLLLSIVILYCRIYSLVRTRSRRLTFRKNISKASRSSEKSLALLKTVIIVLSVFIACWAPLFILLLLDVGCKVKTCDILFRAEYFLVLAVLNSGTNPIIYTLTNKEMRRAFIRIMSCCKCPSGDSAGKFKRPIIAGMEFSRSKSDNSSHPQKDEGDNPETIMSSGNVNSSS

In the case of `NCCCNCCCCNCCCN` [SPERMINE TETRAHYDROCHLORIDE], the IC50 [1] is reported as > 20 µM (inactive), the IC50 [2] is reported as 14.3 µM (active) and the IC50 [3] is reported as 15.6 µM (active).

In the case of `CC(C)c1cccc(C(C)C)c1NC(=O)c1ccc(-c2cc(Cl)ccc2Cl)o1`, the IC50 [4] is reported as 12.7 µM (inactive), the IC50 [5] is reported as > 25 µM (inactive) and the IC50 [6] is reported as > 25 µM (inactive). For the same compound, the IC50 [7] was > 25 µM (inactive).

In the case of `COc1ccc(-c2nn(-c3ccccc3)cc2/C=N/N2C(=O)CSC2=S)cc1`, the AC50 [8] is reported as 2.08 µM (active), the “Absolute IC50 (CHOP)” value [9] is reported as 10 µM and the AC50 [10] is reported as 4.38 µM (active).

For `Nc1c(C(=O)NCc2ccco2)c2nc3ccccc3nc2n1CCc1ccccc1`, the IC50 [11] was 1.87 µM (active).

With `COC(=O)[C@@H]1[C@@H](C#N)C2(c3ccccc3-c3ccccc32)N(c2ccc(Cl)cc2)N1C#N` the EC50 [12] was 5.91 µM (active), the EC50 [13] was 63.1 µM (active) and the EC50 [14] was 19 µM (active). For the same compound, the AC50 [15] was 1.7 µM (active), the IC50 [16] was 92.4 µM (active) and the EC50 [17] was > 59.6 µM (inactive). The EC50 [18] was > 59.6 µM (inactive).

In the case of `CC(C)CN(C(=O)c1ccc(N2CCCC2=O)cc1)c1c(N)n(Cc2ccccc2)c(=O)[nH]c1=O`, the AC50 [19] is reported as > 60 µM (inactive).

In the case of `Cn1c(SCC(=O)N/N=C/C=C\c2ccco2)nc2ccccc21`, the AC50 [20] is reported as “inconclusive” and the AC50 [21] is reported as “inconclusive”.

For `S=C(NCCCN1CCOCC1)NCCCN1CCOCC1`, the IC50 [22] was 2.61 µM (active), the IC50 [23] was 6.17 µM (active) and the IC50 [24] was > 158 µM (not active). The IC50 [25] was > 66 µM (inactive) and the IC50 [26] was > 66 µM (inactive).
